The record followed here is PMC11554305, “Functional identification of soluble uric acid as an endogenous inhibitor of CD38” (eLife, 2024).

A word on the Ki: it is a measure of affinity in units of concentration, obtained from inhibition or displacement. A high value points to lower affinity.

One test concerns the target T1, CD38 (Homo sapiens, UniProt P28907).
T1 construct: cells or tissues were directly homogenized in blank reaction buffer on ice; host or cells: THP-1
T1 sequence (P28907 1-300): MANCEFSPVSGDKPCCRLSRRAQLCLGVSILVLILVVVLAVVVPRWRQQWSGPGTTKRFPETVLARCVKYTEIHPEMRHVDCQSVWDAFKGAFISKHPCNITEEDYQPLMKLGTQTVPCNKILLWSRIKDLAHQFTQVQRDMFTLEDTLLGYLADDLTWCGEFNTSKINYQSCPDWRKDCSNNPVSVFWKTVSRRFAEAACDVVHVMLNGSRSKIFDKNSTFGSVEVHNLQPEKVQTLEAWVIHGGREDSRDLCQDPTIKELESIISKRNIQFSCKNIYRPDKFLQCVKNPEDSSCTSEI
The test is described as follows: Hydrolase activity of THP-1 cells. The conditions noted are these: sUA 0–500 μM, Figure 1—figure supplement 1A. The format is biochemical. As for the experimental part: The hydrolase activity of CD38 was measured according to a previous report ([de Oliveira et al., 2018]) with minor modifications. CD38 hydrolase activity was measured using 50 μM ε-NAD^+ as a substrate in hydrolase reaction buffer (250 mM sucrose, 40 mM Tris-HCl, pH 7.4). Briefly, cells or tissues were directly homogenized in blank reaction buffer on ice, and recombinant hCD38 was diluted in blank reaction buffer for subsequent assays. The tissue homogenates were centrifuged to collect the supernatant for enzyme assays. The loading volume of enzyme was 4–30 μL, the total volume of the reaction system was 3 mL. To detect enzyme inhibition, except when specified, the ligands were directly dissolved in hydrolase reaction buffer before pH adjustment, after which, the pH was immediately adjusted to 7.4. All reaction buffers, with or without ligands, were freshly prepared before each assay. For measurement of hydrolase activity, 3 mL reaction buffer containing enzyme, ε-NAD^+, and ligands at indicated concentrations was maintained at 37°C with constant stirring.
The reaction buffer for hydrolase or cyclase assays was excited at 300 nm, and fluorescence emission was measured every second at 410 nm by Shimazu RF-6000 spectrofluorometer. Hydrolase or cyclase activity was calculated from the linear portion of the time course by fitting a linear function to the data points recorded within 5 min.

The target of a further test is T2, recombinant hCD38 (Homo sapiens, UniProt P28907).
T2 construct: the commercial recombinant hCD38 without a transmembrane region was partially used in this study; purchased Sino Biological 10818-H08H
T2 sequence (P28907 43-300 limits assumed): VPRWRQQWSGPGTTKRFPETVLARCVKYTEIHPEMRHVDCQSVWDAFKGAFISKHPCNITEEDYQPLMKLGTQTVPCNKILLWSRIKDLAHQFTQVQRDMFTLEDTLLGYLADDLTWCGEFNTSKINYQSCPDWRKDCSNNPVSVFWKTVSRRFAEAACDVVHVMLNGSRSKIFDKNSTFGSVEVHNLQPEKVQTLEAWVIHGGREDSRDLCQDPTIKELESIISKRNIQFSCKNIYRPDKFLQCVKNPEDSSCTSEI
Description: Metabolic assay of NMN (degradation by recombinant hCD38). The format is biochemical. The settings on record: NMN 200 μM, hCD38 20 ng/mL, 6 hr. As for the experimental part: To prepare the reaction buffer, sUA was directly dissolved in blank RPMI-1640 medium by addition of NaOH, and the pH was immediately adjusted by HCl. After pH adjustment, the medium containing sUA was filtered by 0.2 μm filter and diluted as indicated. The medium containing 20 ng/mL recombinant hCD38 was then placed in a cell incubator. The reaction was started with the addition of NMN (final concentration was 200 μM). After incubation for 6 hr, 20 μL medium was transferred into 180 μL 5% ice-cold PCA, then vortexed for 30 s and centrifuged at 15,000 rpm, 4°C for 10 min. The supernatant was stored at –80°C until further handling for NMN measurement (see LC-MS/MS analysis).
As mentioned above, samples (cells, tissues, blood, or reaction buffer) were treated with ice-cold PCA, after extraction and centrifugation, the collected supernatant was appropriately diluted in 5% ice-cold PCA when applicable, and then was vortexed for 30 s and centrifuged at 15,000 rpm, 4°C for 5 min. […] All the samples after handling were immediately analyzed in this study without freezing and thawing.
The LC-MS/MS system consisted of a triple quadrupole LCMS-8050 (Shimadzu) and an LC-30A system (Shimadzu). […] NAD^+ and NMN were measured independently in this study, as their peaks were hardly separated within a short time.

With `O=c1[nH]c(=O)c2[nH]c(=O)[nH]c2[nH]1` [sUA, uric acid], the Ki on CD38 is 75.5 µM. Moreover, the “NMN degradation by recombinant hCD38” value at recombinant hCD38 is on record as “directly inhibited NMN degradation”.
